These are literature values, as cited in patent EP2374448A1, “Oral film formulation” (Labtec GmbH, priority 2010, dated 2011).

Read-outs that look alike come from different tables or passages of the source.

[1] abbreviates: oral administration, overall range.

Turning to “N-methyl-3-(1-methyl-4-piperidinyl)-1H-indole-5-ethanesulfonamide [Naratriptan]”, the “Tmax after oral administration” value (in vivo, po) was 1.5 - 4.5 (preferably 2.0 - 4.0) h.
In the case of “4-(5-Methoxy-4-pyrimidinyl)-1-[3-[5-[[(methylamino)-sulfonyl]methyl]-1H-indole-3-yl]propyl]piperazine [Avitriptan]”, the “Tmax after oral administration” value (in vivo, po) was 0.25 - 1 (preferably 0.5) h.
As for `CN(C)CCc1c[nH]c2ccc(Cn3cncn3)cc12` [Rizatriptan, N,N-dimethyl-5-(IH-1,2,4-triazol-l-ylmethyl)-1H-indole-3-ethanamine], the “Tmax after oral administration” value under setting [1] is given as 0.5 - 3 (preferably 1.0 - 2.5) h.
Regarding `CN(C)CCc1c[nH]c2ccc(CS(=O)(=O)N3CCCC3)cc12` [Almotriptan, I-[[[3-[2-(dimethylamino)ethyl]-1H-indole-5-yl]methyl]sulfonyl]pyrrolidine], the “Tmax after oral administration” value under setting [1] is 0.5 - 4 (preferably 1.0 - 3.0) h.
In the case of `CN(C)CCc1c[nH]c2ccc(C[C@H]3COC(=O)N3)cc12` [zolmitriptan, (S)-(4)-[[3-[2-(dimethylamino)ethyl]-1H-indole-5yl]methyl]-2-oxazolidinone], the “Tmax after oral administration” value is 2.5 to 3 h (oral administration, during attack); 1 to 2 h (oral administration, migraine free period); 1 to 4 h under setting [1].
With `CN[C@@H]1CCc2[nH]c3ccc(C(N)=O)cc3c2C1` [Frovatriptan, (+)-(R)-3-methylamino-6-carboxamido-1,2,3,4-tetrahydrocarbazole], under setting [1], the “Tmax after oral administration” value is on record as 0.5 - 4 (preferably 1.0 - 3.0) h.
For the compound `CNS(=O)(=O)Cc1ccc2[nH]cc(CCN(C)C)c2c1` [Sumatriptan, 3-[2-(dimethylamino)ethyl]-N-methyl-1H-indole-5-methanesulfonamide], under setting [1], the “Tmax after oral administration” value is listed as 1.5 - 3 (preferably 2 - 2.5) h.
In the case of `CN1CCC[C@@H]1Cc1c[nH]c2ccc(CCS(=O)(=O)c3ccccc3)cc12` [Eletriptan, (R)-3-[(I-Methyl-2-pyrrolidinyl)methyl]-5-[2-(phenylsulfonyl)ethyl]-1H-indole], the “Tmax after oral administration” value under setting [1] is 1.0 - 3 (preferably 1.5 - 2.0) h.
